Assay results as given in patent US20230106032A1, “IMIDAZOTRIAZINES ACTING ON CANCER VIA INHIBITION OF CDK12” (Bayer Aktiengesellschaft, priority 2020, published 2023).

What was measured:
CDK9/CycT1 = target: T1, CDK9/CycT1 (Homo sapiens, UniProt P50750); experiment: CDK9/CycT1 high ATP kinase assay (TR-FRET, 2 mM ATP); format: biochemical; settings: read-out: CDK9/CyclinT1, 2 mM ATP (high ATP) IC50-[mol/l] (median)
T1 construct: Recombinant full-length His-tagged human CDK9 and CycT1, expressed in insect cells; His; purchased Life Technologies PV4131; host or cells: insect cells
T1 sequence (P50750 whole entry): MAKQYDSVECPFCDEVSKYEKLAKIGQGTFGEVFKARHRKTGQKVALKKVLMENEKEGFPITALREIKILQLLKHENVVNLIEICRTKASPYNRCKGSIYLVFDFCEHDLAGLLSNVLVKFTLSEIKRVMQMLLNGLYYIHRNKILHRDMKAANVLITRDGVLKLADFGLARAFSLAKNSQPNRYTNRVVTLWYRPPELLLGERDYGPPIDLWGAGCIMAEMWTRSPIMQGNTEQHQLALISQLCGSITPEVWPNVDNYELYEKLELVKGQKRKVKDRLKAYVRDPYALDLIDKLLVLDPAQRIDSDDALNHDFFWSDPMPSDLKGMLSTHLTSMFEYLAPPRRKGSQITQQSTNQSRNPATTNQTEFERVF
T1 sequence (O60563 whole entry partner): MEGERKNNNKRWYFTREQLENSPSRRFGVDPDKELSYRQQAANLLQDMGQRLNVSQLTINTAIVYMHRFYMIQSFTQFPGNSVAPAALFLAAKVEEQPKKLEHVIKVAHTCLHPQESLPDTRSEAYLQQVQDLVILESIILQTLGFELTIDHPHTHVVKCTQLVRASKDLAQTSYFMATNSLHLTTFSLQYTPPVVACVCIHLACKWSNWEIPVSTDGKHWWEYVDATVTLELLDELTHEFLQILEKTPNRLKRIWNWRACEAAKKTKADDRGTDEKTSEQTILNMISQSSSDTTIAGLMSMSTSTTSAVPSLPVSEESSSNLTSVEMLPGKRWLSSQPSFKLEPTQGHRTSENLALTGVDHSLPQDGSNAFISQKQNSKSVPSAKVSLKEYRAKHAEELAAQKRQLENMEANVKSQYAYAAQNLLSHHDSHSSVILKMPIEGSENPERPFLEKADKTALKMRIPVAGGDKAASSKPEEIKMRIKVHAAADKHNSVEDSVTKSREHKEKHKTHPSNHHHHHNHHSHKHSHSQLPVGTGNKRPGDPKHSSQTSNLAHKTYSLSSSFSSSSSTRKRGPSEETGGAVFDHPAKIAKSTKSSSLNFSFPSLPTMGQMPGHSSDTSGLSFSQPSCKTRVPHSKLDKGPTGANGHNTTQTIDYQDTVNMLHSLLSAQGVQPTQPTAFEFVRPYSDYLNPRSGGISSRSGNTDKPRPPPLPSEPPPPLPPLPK
Description: CDK9/CycT1-inhibitory activity of compounds of the present invention at a high ATP concentration after preincubation of enzyme and test compounds was quantified employing the CDK9/CycT1 TR-FRET assay as described in the following paragraphs.
Recombinant full-length His-tagged human CDK9 and CycT1, expressed in insect cells and purified by Ni-NTA affinity chromatography, were purchased from Life Technologies (Cat. No PV4131). As substrate for the kinase reaction biotinylated peptide biotin-Ttds-YISPLKSPYKISEG (C-terminus in amide form) was used which can be purchased e.g. form the company JERINI peptide technologies (Berlin, Germany).
For the assay 50 nanoL of a 100 fold concentrated solution of the test compound in DMSO was pipetted into either a black low volume 384 well microtiter plate or a black 1536 well microtiter plate (both Greiner Bio-One, Frickenhausen, Germany), 2 microL of a solution of CDK9/CycT1 in aqueous assay buffer [50 millimol/L Tris/HCl pH 8.0, 10 millimol/L MgCl2, 1.0 millimol/L dithiothreitol, 0.1 millimol/L sodium ortho-vanadate, 0.01% (v/v) Nonidet-P40 (Sigma)] were added and the mixture was incubated for 15 min at 22° C. to allow pre-binding of the test compounds to the enzyme before the start of the kinase reaction. Then the kinase reaction was started by the addition of 3 microL of a solution of adenosine-tri-phosphate (ATP, 3.3 millimol/L=> final conc. in the 5 microL assay volume is 2 millimol/L) and substrate (1.25 micromol/L=> final conc. in the 5 microL assay volume is 0.75 micromol/L) in assay buffer and the resulting mixture was incubated for a reaction time of 25 min at 22° C. The concentration of CDK9/CycT1 was adjusted depending of the activity of the enzyme lot and was chosen appropriate to have the assay in the linear range, typical concentrations were in the range of 0.5 microg/ml. The reaction was stopped by the addition of 3 microL of a solution of TR-FRET detection reagents (0.33 micromol/L streptavidine-XL665 [Cisbio Bioassays, Codolet, France] and 1.67 nanomol/L anti-RB(pSer807/pSer8l 1)-antibody from BD Pharmingen [#558389] and 2 nanomol/L LANCE EU-W1024 labeled anti-mouse IgG antibody [Perkin-Elmer, product no. AD0077]) in an aqueous EDTA-solution (167 millimol/L EDTA, 0.2% (w/v) bovine serum albumin in 100 millimol/L HEPES pH 7.5).
The resulting mixture was incubated 1 h at 22° C. to allow the formation of complex between the phosphorylated biotinylated peptide and the detection reagents. Subsequently the amount of phosphorylated substrate was evaluated by measurement of the resonance energy transfer from the Eu-chelate to the streptavidine-XL. Therefore, the fluorescence emissions at 620 nm and 665 nm after excitation at 350 nm was measured in a TR-FRET reader, e.g. a Pherastar (BMG Labtechnologies, Offenburg, Germany) or a Viewlux (Perkin-Elmer). The ratio of the emissions at 665 nm and at […] was taken as the measure for the amount of phosphorylated substrate. The data were normalised (enzyme reaction without inhibitor=0% inhibition, all other assay components but no enzyme=100% inhibition).

[1] = test system: BRCA1 mRNA expression in MDA-MB-231 cells; experiment: qRT-PCR assay: inhibition of BRCA1 mRNA expression in MDA-MB-231 cells; format: cell-based; settings: Homo sapiens, 24 h exposure, normalised to GAPDH, read-out: RTqPCR-MDA-MB-231 IC50 [mol/l] BRCA1 (median)
Description: Tissue cultured human MDA-MB-231 human breast cancer cells were plated in 500 microL per well at 200,000 cells/well in a 24 well microtiter plate. After 24 h, the cells were exposed continuously for 24 h to test substances (substances were added with Tecan HP D300 Dispenser). RNA was prepared using Qiagen RNeasy MiniKit (#74106), RNA was quantified using a NanoDrop Equipment, and 600 nano gamms of RNA was converted to cDNA using a SuperScript VILO kit (Thermofisher #11755050) followed by qPCR amplification. BRCA1 and ATR gene expression was measured by RT-qPCR and normalised to GAPDH housekeeping gene expression. qPCR primer sets have been purchased from Thermo Fisher Scientific/Applied Biosystems: BRCA1, #Hs 01556193; ATR, #Hs 00992123; GAPDH, #Hs 03929097.

CYCLIN K = CYCLIN K nuclear protein level: immunofluorescence/high content analysis in CAL-120 cells; format: cell-based, human; settings: 24 h, nuclear CCNK staining, read-out: CYCLIN K degradation IF, DC50-[mol/l] (median)
Description: In the context of the present invention, the term “DC50 Cyclin K” refers to the DC50 values obtained according to the assay described in this section (7) herein below, i.e. the DC50 values for the degradation of Cyclin K.
CAL-120 human breast cancer cells (DSMZ ACC 459) are seeded in 1536-well microtiter plates (800 cells per well) containing 50 nanoL of compounds in Dose-Response. Control wells received DMSO or Reference Example 1. Plates are then incubated for 24 h at 37° C. in an humidified incubator and fixed with 4% PFA for 10 min. Then immunofluorescence (IF) against CYCLIN K (ThermoFisher Scientific CCNK Antibody #PA5-85020, rabbit, 1:200 dilution) is performed using standard IF protocols. Cells are then stained with Hoechst 33342 (Life Technologies, H-1399, 0.1 microg/ml) and imaged on an automated confocal microscopy system (e.g. Perkin Elmer Opera Phenix). Nuclear and cytoplasmic intensity as well as the nuclear/cytoplasmic intensity ratio is determined by automated image analysis using custom generated scripts (MetaXpress). Data is then transferred to Genedata Screener software, normalized to DMSO and control and DC50 values (degrading concentration to achieve 50% reduction of nuclear CCNK staining intensity relative to controls) are reported.

| SMILES | IC50 (CDK9/CycT1) [µM] | IC50 [1] [nM] | DC50 (CYCLIN K) [nM] |
| --- | --- | --- | --- |
| CN1CCN(c2nc(NCc3nc4ccccc4[nH]3)c3ncc(C(F)(F)F)n3n2)CC1 [Example 25, N-[(1H-benzimidazol-2-yl)methyl]-2-(4-methylpiperazin-1-yl)-7-(trifluoromethyl)imidazo[2,1-f][1,2,4]triazin-4-amine] | > 20 | 8.65 | 1.66 |
| Fc1ccc2[nH]c(CNc3nc(N4CCOCC4)nn4c(C(F)(F)F)cnc34)nc2c1F [Example 27, N-[(4,5-difluoro-1H-benzimidazol-2-yl)methyl]-2-(morpholin-4-yl)-7-(trifluoromethyl)imidazo[2,1-f][1,2,4]triazin-4-amine] | 6.74 | 1.05 | 3.45 |
| COc1cccc2[nH]c(CNc3nc(N4CCN(C)CC4)nn4c(Br)cnc34)nc12.O=CO [Example 16, 7-bromo-N-[(4-methoxy-1H-benzimidazol-2-yl)methyl]-2-(4-methylpiperazin-1-yl)imidazo[2,1-f][1,2,4]triazin-4-amine Formate (1/1)] | > 20 | 5.59 | 0.954 |
| Brc1cnc2c(NCc3nc4ccccc4[nH]3)nc(N3CCNCC3)nn12 [Example 8, N-[(1H-benzimidazol-2-yl)methyl]-7-bromo-2-(piperazin-1-yl)imidazo[2,1-f][1,2,4]triazin-4-amine] | > 20 | 3.4 | 1.28 |
| COc1cccc2[nH]c(CNc3nc(N4CCNCC4)nn4c(Br)cnc34)nc12 [Example 15, 7-bromo-N-[(4-methoxy-1H-benzimidazol-2-yl)methyl]-2-(piperazin-1-yl)imidazo[2,1-f][1,2,4]triazin-4-amine] | > 20 | 2.36 | 1.41 |
| OC[C@@H]1CCCCN1c1nc(NCc2nc3ccccc3[nH]2)c2ncc(Br)n2n1 [Example 17, [(2S)-1-(4-{[(1H-benzimidazol-2-yl)methyl]amino}-7-bromoimidazo[2,1-f][1,2,4]triazin-2-yl)piperidin-2-yl]methanol] | 4.11 | 15.7 | 3.94 |
| Fc1ccc2[nH]c(CNc3nc(N4CCNCC4)nn4c(Br)cnc34)nc2c1F [Example 10, 7-bromo-N-[(4,5-difluoro-1H-benzimidazol-2-yl)methyl]-2-(piperazin-1-yl)imidazo[2,1-f][1,2,4]triazin-4-amine] | 12.4 | 0.548 | 0.0632 |
| COc1cccc2[nH]c(CNc3nc(N4CCOCC4)nn4c(Br)cnc34)nc12 [Example 13, 7-bromo-N-[(4-methoxy-1H-benzimidazol-2-yl)methyl]-2-(morpholin-4-yl)imidazo[2,1-f][1,2,4]triazin-4-amine] | > 18.9 | 8.06 | 1.57 |
| CN1CCN(c2nc(NCc3nc4c(F)c(F)ccc4[nH]3)c3ncc(C(F)(F)F)n3n2)CC1 [Example 28, N-[(4,5-difluoro-1H-benzimidazol-2-yl)methyl]-2-(4-methylpiperazin-1-yl)-7-(trifluoromethyl)imidazo[2,1-f][1,2,4]triazin-4-amine] | > 20 | 0.242 | 0.363 |
| C[C@@H]1CN(c2nc(NCc3nc4c(F)c(F)ccc4[nH]3)c3ncc(C(F)(F)F)n3n2)C[C@H](C)N1 [Example 29, N-[(4,5-difluoro-1H-benzimidazol-2-yl)methyl]-2-[rel-(3R,5S)-3,5-dimethylpiperazin-1-yl]-7-(trifluoromethyl)imidazo[2,1-f][1,2,4]triazin-4-amine] | 4.62 | 1.05 | 0.267 |
| CN1CCN(c2nc(NCc3nc4cc(F)ccc4[nH]3)c3ncc(Br)n3n2)CC1 [Example 21, 7-bromo-N-[(5-fluoro-1H-benzimidazol-2-yl)methyl]-2-(4-methylpiperazin-1-yl)imidazo[2,1-f][1,2,4]triazin-4-amine] | > 20 | 3.11 | 0.227 |
| Fc1ccc2[nH]c(CNc3nc(N4CCOCC4)nn4c(Br)cnc34)nc2c1F [Example 7, 7-bromo-N-[(4,5-difluoro-1H-benzimidazol-2-yl)methyl]-2-(morpholin-4-yl)imidazo[2,1-f][1,2,4]triazin-4-amine] | 9.06 | 6.36 | 0.201 |
| COc1cccc2[nH]c(CNc3nc(N4C[C@@H](C)N[C@@H](C)C4)nn4c(Br)cnc34)nc12 [Example 14, 7-bromo-2-[rel-(3R,5S)-3,5-dimethylpiperazin-1-yl]-N-[(4-methoxy-1H-benzimidazol-2-yl)methyl]imidazo[2,1-f][1,2,4]triazin-4-amine] | > 18.1 | 1.47 | 0.225 |
